# Laboratory results as given in patent US8058008B2, “Method for extracting quantitative information relating to an influence on a cellular response” (Fisher Bioimage APS, priority 1997, dated 2011).
# Assays:
# [1] = system: EGFP-Erk1 fusion; test: EGFP-Erk1 nuclear translocation in HEK293 cells; format: cell-based, human
# Text: b) The human Erk1 gene (GenBank Accession number: X60188) was amplified using PCR according to standard protocols with primers Erk1-top (SEQ ID NO:9) and Erk1-bottom/+stop (SEQ ID NO:10). The PCR product was digested with restriction enzymes EcoR1 and BamH1, and ligated into pEGFP-C1 (Clontech, Palo Alto; GenBank Accession number U55763) digested with EcoR1 and BamH1. This produces an EGFP-Erk1 fusion (SEQ ID NO:38 &39) under the control of a CMV promoter.
# The plasmid containing the EGFP-Erk1 fusion was transfected into HEK293 cells employing the FUGENE transfection reagent (Boehringer Mannheim). Prior to experiments the cells were grown to 80%-90% confluency 8 well chambers in DMEM with 10% FCS. […] Just before starting the experiment, the HAM F-12 was replaced with Hepes buffer following a wash with Hepes buffer. This removes the PD98059 inhibitor; if blocking of MEK1 is still wanted (e.g. in control experiments), the inhibitor is included in the Hepes buffer.
# The experimental setup of the microscope was as described in example 1.
# 60 images were collected with 10 seconds between each, and with the test compound added after image number 10.
# Redistribution of GFP fluorescence is expressed in this example as the change in the ratio value between areas in nuclear versus cytoplasmic compartments of the cell. Each time profile is the average of nuclear to cytoplasmic ratios from six cells in each treatment.
# [2] = system: PKAc-F64L-S65T-GFP fusion; test: PKAc-F64L-S65T-GFP redistribution in stably transfected CHO cells (fluorescence microscopy, image analysis); format: cell-based, murine
# Protocol: The catalytic subunit of the murine cAMP dependent protein kinase (PKAc) was fused C-terminally to a F64L-S65T derivative of GFP. The resulting fusion (PKAc-F64L-S65T-GFP) was used for monitoring in vivo the translocation and thereby the activation of PKA.
# Untransfected CHO cells were used as the control. […] Expression of GR was maintained with 500 mg G418/ml (Neo marker) and PKAc-F64L-S65T-GFP was maintained with 500 mg Zeocin/ml (Sh ble marker). CHO cells were also simultaneously co-transfected with vectors containing the PKAc-F64L-S65T-GFP fusion and the human a2a adrenoceptor (hARa2a).
# For fluorescence microscopy, cells were allowed to adhere to Lab-Tek chambered cover-glasses (Nalge Nunc Int., Naperville, Ill., USA) for at least 24 hours and cultured to about 80% confluence. Prior to experiments, the cells were cultured over night without selection pressure in HAM F-12 medium with glutamax (Life Technologies), 100 mg penicillin-streptomycin mixture ml^−1 and 0.3% FBS. This medium has low autofluorescence enabling fluorescence microscopy of cells straight from the incubator.
# The cells were illuminated with a 100 W HBO arc lamp.
# Method 1: Stepwise Procedure for Quantitation of Translocation of PKA:
# 3. The image histogram, i.e., the frequency of occurrence of each intensity value in the image, was calculated.
# 4. A smoothed, second derivative of the histogram was calculated and the second zero is determined. […]
# 5. The value determined in step 4 was subtracted from the image. […]
# 6. The variance (square of the standard deviation) of the remaining pixel values was determined. […]
# Method 2: Alternative Method for Quantitation of PKA Redistribution:
# 1. […] The area of each image occupied by the aggregates is calculated by counting pixels in the segmented areas. […] A value of zero (0) indicates no redistribution of fluorescence from the starting condition. […]
# As described above, the time it took for a response to come to completion was dependent on the forskolin dose (FIG. 5) In addition the degree of responses was also dose dependent. […] The amount of cAMP produced was measured in an SPA assay. […]
# [3] = system: cAMP; test: Scintillation proximity assay (SPA) of cAMP produced in CHO cells; format: cell-based, Chinese hamster; settings: 8 concentrations 0.01-50 mM (n=4), 100 mM IBMX, 10 min
# Protocol: 7. Scintillation proximity assay (SPA) for independent quantitation of cAMP:
# Cells were cultured in HAM F-12 medium as described above, but in 96-well plates. The medium was exchanged with Ca^2+-HEPES buffer including 100 mM IBMX and the cells were stimulated with different concentrations of forskolin for 10 min. Reactions were stopped with addition of NaOH to 0.14 M and the amount of cAMP produced was measured with the cAMP-SPA kit, RPA538 (Amersham) as described by the manufacturer.
# As described above, the time it took for a response to come to completion was dependent on the forskolin dose (FIG. 5) In addition the degree of responses was also dose dependent. To test the PKA-F64L-S65T-GFP fusion protein translocation in a semi high through-put system, CHO cells stably transfected with the PKA-F64L-S65T-GFP fusion was stimulated with buffer and 5 increasing doses of forskolin (n=8). […] In parallel, cells were stimulated with buffer and 8 increasing concentrations of forskolin (n=4) in the range 0.01-50 mM. The amount of cAMP produced was measured in an SPA assay. A steep increase was observed between 1 and 5 mM forskolin coincident with the steepest part of the curve for fusion protein translocation (also FIG. 6)
# [4] = system: actin-binding-domain-EGFP fusion; test: Actin-binding-domain-EGFP redistribution in CHO cells expressing the human insulin receptor; format: cell-based; settings: insulin stimulation
# Text: The actin binding domain of the human alpha-actinin gene (GenBank Accession number: X15804) was amplified using PCR according to standard protocols with primers ABD-top (SEQ ID NO:90) and ABD-bottom/−stop (SEQ ID NO:91). The PCR product was digested with restriction enzymes Hind3 and BamH1, and ligated into pEGFP-N 1 (Clontech, Palo Alto; GenBank Accession number U55762) digested with Hind3 and BamH1. This produced an actin-binding-domain-EGFP fusion (SEQ ID NO:128 &129) under the control of a CMV promoter.
# The resulting plasmid was transfected into CHO cells expressing the human insulin receptor.
# [5] = molecular target: T1, PKA-F64L-S65T-GFP probe / human a2a adrenoceptor (hARa2a) (Homo sapiens, UniProt P08913); test: PKAc-F64L-S65T-GFP redistribution in transiently transfected CHO cells expressing hARa2a; format: cell-based, murine; settings: 10 mM norepinephrine after 10 mM forskolin for 7.5 minutes, forskolin still present
# T1 construct: expressed in transfected cells; host or cells: CHO, transient co-transfection
# T1 sequence (P08913 1-465): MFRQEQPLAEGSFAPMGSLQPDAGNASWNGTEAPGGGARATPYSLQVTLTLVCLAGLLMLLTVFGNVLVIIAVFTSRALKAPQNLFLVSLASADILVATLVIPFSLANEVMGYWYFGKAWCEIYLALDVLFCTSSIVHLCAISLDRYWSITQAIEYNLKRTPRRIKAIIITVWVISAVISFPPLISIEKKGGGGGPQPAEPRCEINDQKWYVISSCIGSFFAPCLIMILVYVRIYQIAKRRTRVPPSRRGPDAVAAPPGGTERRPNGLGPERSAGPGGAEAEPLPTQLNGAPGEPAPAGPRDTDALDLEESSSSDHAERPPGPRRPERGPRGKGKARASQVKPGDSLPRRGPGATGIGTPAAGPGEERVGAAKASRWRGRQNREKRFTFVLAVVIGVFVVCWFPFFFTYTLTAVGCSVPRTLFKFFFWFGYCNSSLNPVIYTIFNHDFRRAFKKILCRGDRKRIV
# Protocol: Transiently transfected CHO cells expressing hARa2a and the PKA-F64L-S65T-GFP probe were treated with 10 mM forskolin for 7.5 minutes, then, in the continued presence of forskolin, exposed to 10 mM norepinephrine to stimulate the exogenous adrenoreceptors, which couple to a Gi protein, which inhibit adenylate cyclase.
compound,measurement,setting,value
"EGF: growth factor added to activate the MAPK pathway and Erk1 nuclear translocation (NSDSECPLSHDGYCLHDGVCMYIEALDKYACNCVVGYIGERCQYRDLKWWELR; UniProt P01133 971-1023, looked up)",redistribution of EGFP-Erk1,"[1]; EGF 1-100 nM, within minutes",redistribution of EGFP-Erk1 from the cytoplasm into the nucleus
same,relationship between concentration and nuclear translocation of EGFP-Erk1,"[1]; change in nuclear to cytoplasmic ratio, six cells per treatment",dose-dependent relationship
CC(C)Cn1c(=O)n(C)c(=O)c2[nH]cnc21 [IBMX],temporal profile of fusion protein redistribution compared with forskolin,"[2]; 1 mM dbcAMP, 100 mM IBMX, no adenylate cyclase stimulation",slow response
same,return of fusion protein to prestimulatory localization after removal of forskolin,"[2]; 10 mM forskolin and 100 mM IBMX, then washed 5-8 times with buffer containing 100 mM IBMX",did not return to its prestimulatory localization
"C=C[C@@]1(C)CC(=O)[C@]2(O)[C@@]3(C)[C@@H](O)CCC(C)(C)[C@@H]3[C@H](O)[C@H](OC(C)=O)[C@@]2(C)O1 [forskolin, Forskolin]",forskolin concentration range of steep increase in amount of cAMP produced,[3],1 to 5 mM
COc1cccc(-c2cc(=O)c3ccccc3o2)c1N [PD98059],effect on nuclear EGFP-Erk1,"[1]; 100 micromolar PD98059, 30-60 minutes in plain HAM F-12 without FCS",effectively empties the nucleus of EGFP-Erk1
insulin,redistribution of actin binding domain-EGFP probe,[4],redistributed into morphologically distinct membrane-associated structures
NC[C@H](O)c1ccc(O)c(O)c1 [norepinephrine],"localisation of fluorescence, indicative of a decrease in [cAMP]i",[5],reappearance of fluorescence in the cytoplasmic aggregates
CCCC(=O)Nc1ncnc2c1ncn2[C@@H]1O[C@@H]2COP(=O)(O)O[C@H]2[C@H]1OC(=O)CCC [dbcAMP],translocation of the fusion protein,"[2]; 1, 10 and 50 mM forskolin, dbcAMP at 1 mM",dramatic translocation of the fusion protein from a punctate distribution to an even distribution throughout the cytoplasm
